Data taken from the SangsterLogP compilation.

Experiment: method code SF-AS, from DOI: 10.1002/zfch.19810210618

Point of comparison: `NNC(=O)Nc1ccc(I)cc1`, logP 1.24. Against it:
- NNC(=O)Nc1cccc2ccccc12 — lower, 0.9
- NNC(=O)Nc1ccccc1Br — lower, 0.66
- NNC(=O)Nc1cccc(C(=O)O)c1 — lower, -0.16
- Cc1ccc(NC(=O)NN)cc1 — lower, 0.69
- NNC(=O)Nc1ccccc1O — lower, 0.33
- NNC(=O)Nc1cccc([N+](=O)[O-])c1 — lower, -0.13
- Cc1cccc(NC(=O)NN)c1 — lower, 0.68
- CCOc1ccc(NC(=O)NN)cc1 — lower, 0.53
- COc1ccc(NC(=O)NN)cc1 — lower, 0.17
- NNC(=O)Nc1ccc(O)cc1 — lower, -0.55
- NNC(=O)Nc1cccc(Br)c1 — lower, 0.96
- NNC(=O)Nc1cc(Cl)ccc1Cl — within 0.2 log units, 1.07
- NNC(=O)Nc1ccccc1C(=O)O — lower, -0.49
- COc1ccccc1NC(=O)NN — lower, -0.15
- NNC(=O)Nc1ccc([N+](=O)[O-])cc1 — lower, -0.18
- NNC(=O)Nc1cccc(O)c1 — lower, -0.5
- NNC(=O)Nc1ccccc1[N+](=O)[O-] — lower, -0.47
- NNC(=O)Nc1ccc(C(=O)O)cc1 — lower, -0.21
- NNC(=O)Nc1ccccc1Cl — lower, 0.45
- Cc1ccccc1NC(=O)NN — lower, 0.36
- COc1cccc(NC(=O)NN)c1 — lower, 0.17
- NNC(=O)Nc1ccc(Br)cc1 — lower, 1
- NNC(=O)Nc1ccccc1 — lower, 0.16
- NNC(=O)Nc1cccc(Cl)c1 — lower, 0.83
- NNC(=O)Nc1ccc(Cl)cc1 — lower, 0.87
